Each structure is given as a SMILES string.

One assay deals with T1, P2X7 receptor (Homo sapiens, UniProt Q99572).
T1 construct: host or cells: SH-SY5Y
T1 sequence (Q99572 1-595): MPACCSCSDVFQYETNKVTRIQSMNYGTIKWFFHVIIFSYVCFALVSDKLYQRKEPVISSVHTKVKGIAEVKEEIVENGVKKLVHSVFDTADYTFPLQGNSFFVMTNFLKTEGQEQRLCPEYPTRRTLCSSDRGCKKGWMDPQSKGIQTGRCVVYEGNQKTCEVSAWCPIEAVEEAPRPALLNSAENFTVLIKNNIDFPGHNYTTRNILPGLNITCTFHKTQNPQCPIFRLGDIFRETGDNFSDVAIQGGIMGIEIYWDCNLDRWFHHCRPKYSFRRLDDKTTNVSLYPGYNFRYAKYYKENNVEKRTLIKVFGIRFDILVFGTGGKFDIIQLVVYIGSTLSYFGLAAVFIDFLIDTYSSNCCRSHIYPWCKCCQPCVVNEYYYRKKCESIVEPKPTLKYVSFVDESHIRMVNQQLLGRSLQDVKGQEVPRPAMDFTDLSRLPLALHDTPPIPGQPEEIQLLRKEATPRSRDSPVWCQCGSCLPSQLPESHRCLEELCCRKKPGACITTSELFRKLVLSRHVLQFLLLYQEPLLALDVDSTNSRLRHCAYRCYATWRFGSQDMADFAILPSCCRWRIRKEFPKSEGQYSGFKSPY
In words: High throughput P2X7 calcium mobilization assay (Example 4A). In kind it is cell-based. Conditions: SH-SY5Y cells; 50% decrease in fluorescence response of cells exposed to 80 μM BzATP; Table I. The procedure: A. High Throughput Assay of P2X7 Receptors
SH-SY5Y cells, ATCC Number CRL-2266, (American Type Culture Collection, Manassas, Va.) are cultured under DMEM/High medium supplemented with 10% FBS, and 10 mM HEPES (Invitrogen Corp., Carlsbad, Calif.) in 5% CO2 and at 37° C. One day prior to the experiment, cells are plated at a density of 100,000 cells/well in a 96 well black/clear TC plate (Corning® Costar®, Sigma-Aldrich Co., St. Louis, Mo.). At the beginning of the experiment, the culture medium is removed and cells are incubated with 50 μL of 2.3 μM Fluo-4 AM dye (Invitrogen Corp.) in the assay solution (5 mM KCl, 9.6 mM NaH2PO4.H2O, 25 mM HEPES, 280 mM sucrose, 5 mM glucose, and 0.5 mM CaCl2; pH is adjusted to 7.4 with NaOH) for an hour at 37° C. After one hour dye incubation, wells are rinsed once with 50 μL assay solution, and are then incubated for an hour at room temperature with 100 μL assay solution containing the test compound. The final concentration of test compound generally ranges from 1 to 2500 nM; for positive control cells, no test compound is added. After the one hour incubation, plates are transferred to a FLIPR^TETRA instrument (Molecular Devices, Sunnyvale, Calif.) for calcium mobilization analysis.
For determination of antagonist activity, 50 μL, of P2X7 agonist (2′(3)-O-(4-benzoyl-benzoyl)adenosine 5′-triphosephate (BzATP; Sigma-Aldrich) in the assay solution is transferred using the FLIPR into the plate, such that the final agonist concentration is 80 μM (about EC50). In negative control cells, 50 μL of assay solution without agonist is added at this stage. The peak fluorescence signal over a 2 minute period is then measured.
First, the average maximum relative fluorescent unit (RFU) response from the negative control wells (no agonist) is subtracted from the maximum response detected for each of the other experimental wells. Second, average maximum RFU response is calculated for the positive control wells (agonist wells).
For orientation: Calcium assays in cells follow changes in intracellular calcium, usually with a dye or a luminescent sensor.
As usually defined, the IC50 is the concentration that inhibits the measured activity by half. Take `Cn1ccnc1-n1cc(C(=O)NCC23CC4CC(CC(C4)C2)C3)c(C(F)(F)F)n1` [Compound 142, N-(adamantan-1-ylmethyl)-1-(1-methyl-1H-imidazol-2-yl)-3-(trifluoromethyl)-1H-pyrazole-4-carboxamide]: the IC50 was at most 2 µM.
Same read-out and setting: with `O=C(NCC1(c2cccnc2)CCCCC1)c1sc(-c2cccc3cccnc23)nc1C(F)(F)F` [Compound 319, N-[(1-pyridin-3-ylcyclohexyl)methyl]-2-quinolin-8-yl-4-(trifluoromethyl)-1,3-thiazole-5-carboxamide] the figure was at most 2 µM.
Still for that read-out and setting: with `COc1ccc(C2(CNC(=O)c3sc(-c4ncccn4)nc3C(F)(F)F)CCCC2)cc1` [Compound 285, N-{[1-(4-methoxyphenyl)cyclopentyl]methyl}-2-pyrimidin-2-yl-4-(trifluoromethyl)-1,3-thiazole-5-carboxamide] the figure was at most 2 µM; with `CC(CCNC(=O)c1cn(-c2ncccn2)nc1C(F)(F)F)c1ccccc1` (stereo not drawn) [Compound 215, N-(3-phenylbutyl)-1-pyrimidin-2-yl-3-(trifluoromethyl)-1H-pyrazole-4-carboxamide], at most 2 µM.
Turning to `Nc1nc(-n2cc(C(=O)NCC(O)C34CC5CC(CC(C5)C3)C4)c(C(F)(F)F)n2)ncc1F` (stereo not drawn) [Compound 169, N-(2-adamantan-1-yl-2-hydroxyethyl)-1-(4-amino-5-fluoropyrimidin-2-yl)-3-(trifluoromethyl)-1H-pyrazole-4-carboxamide], the IC50 is at most 2 µM.
Same read-out and setting: the same measure for `Cc1nn(-c2ncc(F)cn2)cc1C(=O)NCC(CC(C)C)c1ccc(Cl)cc1` (stereo not drawn) [Compound 114, N-[2-(4-chlorophenyl)-4-methylpentyl]-1-(5-fluoropyrimidin-2-yl)-3-methyl-1H-pyrazole-4-carboxamide]: at most 2 µM; for `Cc1nn(-c2cncc(N)n2)cc1C(=O)NCC1(c2ccc(C(F)(F)F)cc2)CCCCC1` [Compound 183, 1-(6-aminopyrazin-2-yl)-3-methyl-N-({1-[4-(trifluoromethyl)phenyl]cyclohexyl}methyl)-1H-pyrazole-4-carboxamide]: at most 2 µM; for `Cc1nn(-c2ncc(Br)cn2)cc1C(=O)NCC12CC3CC(CC(C3)C1)C2` [Compound 125, N-(adamantan-1-ylmethyl)-1-(5-bromopyrimidin-2-yl)-3-methyl-1H-pyrazole-4-carboxamide]: at most 2 µM.
Still for that read-out and setting: the same measure for `O=C(NCC1(c2cccnc2)CCCCC1)c1sc(N2CCOCC2)nc1C(F)(F)F` [Compound 294, 2-morpholin-4-yl-N-[(1-pyridin-3-ylcyclohexyl)methyl]-4-(trifluoromethyl)-1,3-thiazole-5-carboxamide]: at most 2 µM; for `Cc1nn(-c2cnc(N)cn2)cc1C(=O)NCC12CC3CC(CC(C3)C1)C2` [Compound 61, N-(adamantan-1-ylmethyl)-1-(5-aminopyrazin-2-yl)-3-methyl-1H-pyrazole-4-carboxamide]: at most 2 µM; for `CCc1nc(-c2ncccn2)sc1C(=O)NC1CC(C)CC(C)(C)C1` (stereo not drawn) [Compound 236, 4-ethyl-2-pyrimidin-2-yl-N-(3,3,5-trimethylcyclohexyl)-1,3-thiazole-5-carboxamide]: at most 2 µM.
On the same count and under the same terms, the same measure for `Cc1nc(OC2CCNCC2)sc1C(=O)NCC12CC3CC(CC(C3)C1)C2` [Compound 70, N-(adamantan-1-ylmethyl)-4-methyl-2-(piperidin-4-yloxy)-1,3-thiazole-5-carboxamide]: at most 2 µM; for `Cc1nn(-c2nccc(C(F)(F)F)n2)cc1C(=O)NCC12CC3CC(CC(C3)C1)C2` [Compound 111, N-(adamantan-1-ylmethyl)-3-methyl-1-[4-(trifluoromethyl)pyrimidin-2-yl]-1H-pyrazole-4-carboxamide]: at most 2 µM; for `C=Cc1nc(-n2cc(C(=O)NCC34CC5CC(CC(C5)C3)C4)c(C)n2)ncc1C` [Compound 103, N-(adamantan-1-ylmethyl)-3-methyl-1-(5-methyl-4-vinylpyrimidin-2-yl)-1H-pyrazole-4-carboxamide]: at most 2 µM.
On to `CCCC(CNC(=O)c1sc(-c2ncccn2)nc1C(F)(F)F)c1ccc(Cl)cc1` (stereo not drawn) [Compound 160, N-[2-(4-chlorophenyl)pentyl]-2-pyrimidin-2-yl-4-(trifluoromethyl)-1,3-thiazole-5-carboxamide], for which the IC50 is at most 2 µM.
For `Cc1nn(-c2nccc(N)n2)cc1C(=O)NCC12CC3CC(CC(C3)C1)C2` [Compound 99, N-(adamantan-1-ylmethyl)-1-(4-aminopyrimidin-2-yl)-3-methyl-1H-pyrazole-4-carboxamide], the IC50 was at most 2 µM.
The same measure, in the same setting: the same measure for `Cc1c(N)ncnc1-n1cc(C(=O)NCC23CC4CC(CC(C4)C2)C3)c(C(F)(F)F)n1` [Compound 128, N-(adamantan-1-ylmethyl)-1-(6-amino-5-methylpyrimidin-4-yl)-3-(trifluoromethyl)-1H-pyrazole-4-carboxamide]: at most 2 µM.
Still for that read-out and setting: the same measure for `O=C(NCC1(c2ccc(Cl)cc2)CCOCC1)c1cn(-c2ncccn2)nc1C(F)(F)F` [Compound 197, N-{[4-(4-chlorophenyl)tetrahydro-2H-pyran-4-yl]methyl}-1-pyrimidin-2-yl-3-(trifluoromethyl)-1H-pyrazole-4-carboxamide]: at most 2 µM; for `Cc1nn(-c2ncc(F)c(N)n2)cc1C(=O)NCC(CC(C)C)c1ccc(Cl)cc1` (stereo not drawn) [Compound 113, 1-(4-amino-5-fluoropyrimidin-2-yl)-N-[2-(4-chlorophenyl)-4-methylpentyl]-3-methyl-1H-pyrazole-4-carboxamide]: at most 2 µM; for `Cc1cnc(-n2cc(C(=O)NCC34CC5CC(CC(C5)C3)C4)c(C)n2)nc1NCCO` [Compound 56, N-(adamantan-1-ylmethyl)-1-{4-[(2-hydroxyethyl)amino]-5-methylpyrimidin-2-yl}-3-methyl-1H-pyrazole-4-carboxamide]: at most 2 µM.
Same read-out and setting: with `Nc1ccnc(-n2cc(C(=O)NCC34CC5CC(CC(C5)C3)C4)c(C(F)(F)F)n2)n1` [Compound 130, N-(adamantan-1-ylmethyl)-1-(4-aminopyrimidin-2-yl)-3-(trifluoromethyl)-1H-pyrazole-4-carboxamide] the figure was at most 2 µM.
In the case of `CNc1nc(-n2cc(C(=O)NCC34CC5CC(CC(C5)C3)C4)c(C)n2)ncc1C` [Compound 92, N-(adamantan-1-ylmethyl)-3-methyl-1-[5-methyl-4-(methylamino)pyrimidin-2-yl]-1H-pyrazole-4-carboxamide], the IC50 was at most 2 µM.
Still for that read-out and setting: with `Cc1nn(-c2ccncc2)cc1C(=O)NCC12CC3CC(CC(C3)C1)C2` [Compound 101, N-(adamantan-1-ylmethyl)-3-methyl-1-pyridin-4-yl-1H-pyrazole-4-carboxamide] the figure was at most 2 µM.

Still in this assay, the particulars now being: SH-SY5Y cells; 50% decrease in fluorescence response of cells exposed to 80 μM BzATP; flag after the MS data in Examples 1-2.
For the molecule `COc1ccc(-c2nc(C(F)(F)F)c(C(=O)NCC3(c4cccnc4)CCCCC3)s2)cn1` [Compound 28, 2-(6-methoxy-pyridin-3-yl)-4-trifluoromethyl-thiazole-5-carboxylic acid (1-pyridin-3-yl-cyclohexylmethyl)-amide], the IC50 was at most 2 µM.
The same measure, in the same setting: with `Cc1nc(-c2cccnc2)sc1C(=O)NCC1(c2ccc(Cl)cc2)CCCCC1` [Compound 29, N-{[1-(4-Chlorophenyl)cyclohexyl]methyl}-4-methyl-2-pyridin-3-yl-1,3-thiazole-5-carboxamide] the figure was at most 2 µM.
Same read-out and setting: the same measure for `O=C(NCC1(c2cccnc2)CCCCC1)c1cn(-c2ncccn2)nc1Cl` [Compound 11, 3-Chloro-N-[(1-pyridin-3-ylcyclohexyl)methyl]-1-pyrimidin-2-yl-1H-pyrazole-4-carboxamide]: at most 2 µM.
Still for that read-out and setting: the same measure for `CC(C)CC(CNC(=O)c1sc(-c2ncccn2)nc1C(F)(F)F)c1ccc(Cl)cc1` (stereo not drawn) [Compound 22, 4-trifluoromethyl-2-pyrimidin-2-yl-thiazole-5-carboxylic acid[2-(4-chloro-phenyl)-4-methyl-pentyl]-amide]: at most 2 µM.

Values taken from patent publication US9133204B2, “5-membered heterocyclic amides and related compounds” (H. Lundbeck A/S, priority 2007, dated 2015).
